Measured values from patent US9018199B2, “Transition metal complexes for inhibiting resistance in the treatment of cancer and metastasis” (Ecole Polytechnique Federale de Lausanne (EPFL), priority 2006, dated 2015).
pIC50: −log10 of the molar value. Where “and” joins values, the source holds several entries; their conditions need not be identical. Equal values may be shown once. Read-outs that look alike come from different tables or passages of the source.

Assays:
[1] = test system: HT-29 Human colorectal carcinoma; test: IC50 on tumor cell lines, MTT test, HT-29; type: cell-based; conditions: HT-29, 3 days treatment, two separate experiments
Protocol: (§2) IC50 values are determined as follows: Tumour cells are incubated in the appropriate complete medium at 37° C. and under controlled atmosphere (5% CO2). Test compounds are tested at doses in the range of 100 nM and 100 μM. Cytotoxicity is determined by the MTT test, by measuring cell viability as the cell metabolic capacity to transform the tetrazolium salt of MTT in the blue formazan, by mitochondrial dehydrogenases; the blue colour is read at 570 nm with a spectrophotometer (Alley M C, Scudiero D A, Monks A, Hursey A L, Czerwinski M J, Fine D L, Abbott B J, Mayo J G, Shoemaker R H, Boyd M R. Feasibility of drug screening with panels of human tumor cell lines using a microculture tetrazolium assay. Cancer Res 48: 598-601, 1988. Mosmann T. Rapid colorimetric assay for cellular growth and survival: application to proliferation and cytotoxicity assays. […] Briefly, on day 0, in 96-well plates, 2-4000 cells/well/100 μl complete medium are plated. On day 1, test compounds are added at the test concentrations of 10^−7 M; 3*10^−7 M; 10^−6 M; 3*10^−6 M; 10^−5 M; 3*10^−5M; 10^−4 M. Each concentration is studied in triplicate. Cell viability, as determined by the MTT test is done on Day 4, after 3 days treatment. Each well is added with 10 μl/100 μl MTT (prepared previously by dissolving 5 mg/ml MTT in PBS, sterilized with filters at a cut-off of 0.22 mm and stored at 4° C.). Plates are put in an incubator at 37° C. for 4 hrs, then medium is eliminated and each well is added with 200 μl DMSO (Sigma Chemical Co., USA). Plates are read with a spectrophotometer (Spectra count Packard Bell, Meriden, Conn., USA) at 570 nm wave length. IC50 is calculated with the GraphPad Prism4.

[2] = test system: MCF-7 breast carcinoma cell line; test: Cell growth proliferation inhibition, MTT assay, MCF7; type: cell-based, human; conditions: MCF7 cells, 72 hours exposure
Protocol: (§1) When the cell are confluent, they are trypsinised and seeded in 48-well plates as monolayers for 24 h. […] The media is removed from the cell plates are the drug solutions applied in triplicate. A set of control cells, with media containing 1.0% DMSO, was left on each plate. The cells were exposed to the drugs for 72 hours. For […], (8) and (9), the Ru compounds are weighed, and dissolved directly in medium to 1600 μM, then serially diluted to make up 800 μ[…] solutions. Cell viability was determined using the standard MTT assay protocol, which allows the quantification of the mitochondrial activity in metabolically active cells. MTT (final concentration 0.2 mg/ml) was added to the cells for 2 h, then the culture medium was aspirated and the violet formazan precipitate dissolved in 0.1 N HCl in 2-propanol. The optical density, which is directly proportional to number of surviving cells, was quantified at 540 nm using a multiwell plate reader and the fraction of surviving cells was calculated from the absorbance of untreated control cells. Using the above protocol, the compounds were tested against human T47D and MCF-7 breast carcinoma, A549 lung carcinoma and HT-29 colon carcinoma cell lines (see FIG. 7).

[3] = test system: MIA-PaCa-2 Human pancreatic cancer; test: IC50 on tumor cell lines, MTT test, MIA PaCa-2; type: cell-based; conditions: MIA PaCa-2, 3 days treatment, two separate experiments
Protocol: as §2

[4] = test system: H460M Human lung carcinoma/metastatic; test: IC50 on tumor cell lines, MTT test, H460M; type: cell-based; conditions: 3 days treatment, two separate experiments
Protocol: as §2

[5] = test system: A2780 Human ovarian carcinoma; test: IC50 on tumor cell lines, MTT test, A2780; type: cell-based; conditions: A2780, 3 days treatment, two separate experiments
Protocol: as §2

[6] = test system: T47D breast carcinoma cell line; test: Cell growth proliferation inhibition, MTT assay, T47D; type: cell-based, human; conditions: T47D cells, 72 hours exposure
Protocol: as §1

[7] = test system: A2780/CDDP Human ovarian carcinoma resistant to Cistplatin; test: IC50 on tumor cell lines, MTT test, A2780/CDDP; type: cell-based; conditions: for pIC50: read-out: IC50 values A2780/CDDP
Protocol: Tumor cell lines derived from human and mouse turnours listed below were stabilised for in vitro propagation.
IC50 values are determined as follows: Tumour cells are incubated in the appropriate complete medium at 37° C. and under controlled atmosphere (5% CO2). Test compounds are tested at doses in the range of 100 nM and 100 μM. Cytotoxicity is determined by the MTT test, by measuring cell viability as the cell metabolic capacity to transform the tetrazolium salt of MTT in the blue formazan, by mitochondrial dehydrogenases; the blue colour is read at 570 nm with a spectrophotometer (Alley M C, Scudiero D A, Monks A, Hursey A L, Czerwinski M J, Fine D L, Abbott B J, Mayo J G, Shoemaker R H, Boyd M R. Feasibility of drug screening with panels of human tumor cell lines using a microculture tetrazolium assay. Cancer Res 48: 598-601, 1988. Mosmann T. Rapid colorimetric assay for cellular growth and survival: application to proliferation and cytotoxicity assays. J Immunol Methods 65: 55-63, 1983). Briefly, on day 0, in 96-well plates, 2-4000 cells/well/100 μl complete medium are plated. On day 1, test compounds are added at the test concentrations of 10^−7 M; 3*10^−7 M; 10^−6 M; 3*10^−6 M; 10^−5 M; 3*10^−5M; 10^−4 M. Each concentration is studied in triplicate. Cell viability, as determined by the MTT test is done on Day 4, after 3 days treatment. Each well is added with 10 μl/100 μl MTT (prepared previously by dissolving 5 mg/ml MTT in PBS, sterilized with filters at a cut-off of […] and stored at 4° C.). Plates are put in an incubator at 37° C. for 4 hrs, then medium is eliminated and each well is added with 200 μl DMSO (Sigma Chemical Co., USA). Plates are read with a spectrophotometer (Spectra count Packard Bell, Meriden, Conn., USA) at 570 nm wave length. IC50 is calculated with the GraphPad Prism4.
The reported values are the most representative of two separate experiments.

TLX5 Mouse lymphona = test: IC50 on tumor cell lines, MTT test, TLX5; type: cell-based; conditions: TLX5, 3 days treatment, two separate experiments
Protocol: as §2

[8] = test system: HT-29 colon carcinoma cell line; test: Cell growth proliferation inhibition, MTT assay, HT29; type: cell-based, human; conditions: 72 hours exposure
Protocol: as §1

[9] = test system: A549 lung carcinoma cell line; test: Cell growth proliferation inhibition, MTT assay, A549; type: cell-based, human; conditions: A549 cells, 72 hours exposure
Protocol: as §1

[10] = test system: Glutathione-S-Transferase; test: Inhibition of Glutathione-S-Transferase activity in A549 cell lysates (glutathione-CDNB assay); type: biochemical, human; conditions: A549 lung carcinoma cell lysates exposed to 100 μM drug solution for 90 mins
Protocol: Human A549 lung carcinoma cells, known to express high levels of Glutathione-S-Transferase, were routinely grown in flasks with DMEM medium containing 4.5 g/l glucose, 10% foetal calf serum (FCS) and antibiotics at 37° C. and 6% CO2. When the cells are confluent, they are trypsinised and concentrated in a centrifuge at 4° C. The cells were then diluted in phosphate-buffer saline (PBS) containing protease inhibitor cocktail (final concentration of 1 μg/ml) and homogenised by repeatedly freezing in liquid nitrogen and thawing (4 cycles). The homogenised cell samples were centrifuged at 4° C. and the supernatant, which is the cell lysates, was separated. The cell lysates are stored at −56° C.
The Ru compounds are weighed, and dissolved in DMSO to 100 mM. […] The cell lysates were exposed to the drug solutions for 90 mins. Control, containing the cell lysates with water/0.1% DMSO was also prepared.
The GST activity in the treated cell lysates was determined using the glutathione-CDNB (1-chloro-2,4-dinitrobenzene) assay. Glutathione and CDNB were dissolved in deionised water and ethanol respectively to make up a 100 mM solutions. A developing solution, containing 50 mM phosphate buffer solution (pH 6.5), was prepared and was added 1% v/v, the 100 mM glutathione and 100 mM CDNB solutions such that their final concentrations are both 1 mM. The developing solution was added to a 96-well plate at 200 μl per well, followed by the treated cell lysates at 2 μl per well. The absorbance at 340 nm was monitored continuously for 5 mins at 15 s intervals. The average slope of the change in absorbance was determined as a fraction of the control as the percentage of residual GST activity.

TLX5 lymphona cells = test: Survival time in an in vivo TLX5 lymphoma model; parameters: species or system CBA brown-grey inbred mice; conditions: for % increase vs Controls (mean survival time) / Mean survival time (days ± SD): TLX5 cells i.p. day 0 in CBA mice, treatment i.p. at day 3, Compound 3 at 200 mg/kg, Cisplatin 8 mg/kg; for Activity in vivo (in words): TLX5 lymphoma in mice, i.p., compound 3 given as suspension in carboxymethylcellulose
Protocol: Tumour cells (TLX5, see above in Example 8) were derived from mouse tumours and stabilised for in vivo propagation. For the animal study, TLX5 lymphona cells were injected in the peritoneal cavity of CBA brown-grey inbred mice (Harlan-Nossan, San Giovanni al Natisone, Udine, Italy) at day 0. Test compounds were applied at day 3 at various doses, also by the intraperitoneal route, with each drug (test compound or reference drug) diluted in appropriate physiological solution and injected in a volume of 0.1 ml/10 g body weight.

[11] = A2780/CDDP (Cisplatin-resistant), 3 days treatment, MTT test, two separate experiments

Compound	pIC50 [1]	pIC50 [2]	pIC50 [3]	pIC50 [4]	pIC50 [5]	pIC50 [6]	pIC50 [7, 11]	pIC50 (TLX5 Mouse lymphona)	pIC50 ([8]; HT29 cells)	pIC50 [9]	Residual GST activity (% control) [10] [% control]	further results
(Ethacrynic-η^6:benzylamide)Ru(PTA)Cl2 [Compound 3]	5.42 to 5.64	4.70	4.70 to 4.83	5.42 to 5.60	5.02 to 5.15	5.54	5.28 to 5.34	5.52 to 6.10	4.29	4.49	63.57 ± 2.0	Activity against the Cisplatin-resistant cell line A2780/CDDP (in words) ([7]; A2780/CDDP, MTT test): active; % increase vs Controls (mean survival time) (TLX5 lymphona cells): 22%; Mean survival time (days ± SD) (TLX5 lymphona cells): 12.2 days and 12.2 ± 1.79 days; Activity in vivo (in words) (TLX5 lymphona cells): active in vivo
C1N2CN3CN1CP(C2)C3.C=C(CC)C(=O)c1ccc(OCC(=O)OCCc2ccccc2)c(Cl)c1Cl.[Cl][Ru][Cl] [Compound 4, (Ethacrynic-η^6:phenylethanoate)Ru(PTA)Cl2]	4.49 to 4.52	3.98	4.03 to 4.09	4.50 to 4.54	~4.52	5.20	4.41 to 4.44	5.37 to 5.44	3.98	4.18	42.77 ± 13.9	Activity against the Cisplatin-resistant cell line A2780/CDDP (in words) ([7]; A2780/CDDP, MTT test): active
RAPTA-T	< 4.00		< 4.00	< 4.00	< 4.00		< 4.00	4.03 to 4.19				
[(η^6-cymene)RuCl(PTA)(imidazolium-ethacrynic aide)]BF4^− [Compound 7]		4.70				5.22			4.19	4.19	62.58 ± 8.8	
N.N.[Cl][Pt][Cl] [Cisplatin]	4.49 to 5.31		4.89 to 4.97	5.52 to 5.89	4.93 to 4.98		< 4.00	6.70 to 7.70				% increase vs Controls (mean survival time) (TLX5 lymphona cells): 18%; Mean survival time (days ± SD) (TLX5 lymphona cells): 11.8 ± 1.79 days; Activity in vivo (in words) (TLX5 lymphona cells): effective
C=C(CC)C(=O)c1ccc(OCC(=O)O)c(Cl)c1Cl [Ethacrynic acid, reference compound]												pIC50 ([1]; Homo sapiens, 72 h): 4.36 to 4.45; pIC50 ([2]; Homo sapiens): 4.18; pIC50 ([3]; Homo sapiens, 72 h): < 4.00; pIC50 ([4]; Homo sapiens, 72 h): 4.20 to 4.24; pIC50 ([5]; Homo sapiens, 72 h): 4.02 to 4.04; pIC50 ([6]; Homo sapiens): 5.11; pIC50 ([7]; Homo sapiens, A2780/CDDP, 72 h): 4.01 to 4.07; pIC50 (TLX5 Mouse lymphona; Mus musculus, TLX-5, 72 h): 5.74 to 5.89; pIC50 ([8]; Homo sapiens, HT-29, HT29 cells): 4.13; pIC50 ([9]; Homo sapiens): 4.29
(η^6 cymene)Ru(PTA)(C2O4) [Compound 8]		< 2.80				2.93			3.57	2.95		
Cc1ccc(C(C)C)cc1.[Cl][Ru]([Cl])[PH]12CN3CN(CN(C3)C1)C2 [(η^6-cymene)Ru(PTA)Cl2, reference compound]		< 2.80				2.97			3.36	2.99		
(η^6-cymene)Ru(PTA)(C6H6O4) [Compound 9]		< 2.80				2.96			3.58	2.80		
(η^6-cymene)RuCl2(ethacrynic-propylamide-imidazole) [Compound 6]		4.97				5.32			4.41	4.47	23.70 ± 10.7	
